Assay results taken from patent US8524765B2, “Compounds that modulate intracellular calcium” (Calcimedica, Inc., priority 2007, dated 2013).
Entries after “also recorded” stand apart in the source; their conditions may differ.

Test system: store-operated calcium entry in RBL-2H3 cells
Assay: Fluorescence (FLUO-4/FLIPR384) store-operated calcium entry screening assay
Assay type: cell-based, rat
Details: 10 μM; cell line not stated
Procedure: Fluorescence-based assays were used for screening the compounds described herein, such as compounds of Formula (I) and Formula (II), which modulate intracellular calcium.
RBL-2H3 cells plated in 384-well plates were loaded for 45 min with FLUO-4-AM (2 μM final concentration) in HBSS. Cells were washed and placed in a nominally Ca^2+- and Mg^2+-free Hanks solution. One minute later, a test agent or vehicle was added. After a 15 minute incubation period, 1 μM thapsigargin (Tg) was added to inhibit the ER Ca^2+ pump and discharge intracellular Ca^2+ stores. Fifteen minutes after addition of Tg, store-operated calcium entry was initiated by adding external Ca^2+ to a final concentration of 1.8 mM and the cells monitored for a further 10-15 minutes. Calcium levels were monitored throughout the assay using a FLIPR^384 (Molecular Devices fluorimetric imaging plate reader for high throughput screening).
A similar screening assay procedure was used with HEK293 and RBL-2H3 cells.
The kinetic data from the FLIPR^384 were analyzed and then stored in a relational database (ActivityBase; IDBS). Ten quantitative parameters were calculated that define various aspects of the store-operated calcium entry response. These parameters are as follows:
Up slope: linear regression of the increase in RFU from 2 to 30 sec after addition of Ca^2+.
Combinations of these parameters were used to characterize the compounds of Formula (I). Compounds were retested under identical conditions to confirm their activity. Compounds with confirmed activity were then analyzed for concentration-dependent effects, and subsequently, those compounds displaying concentration-dependent effects were categorized as compounds that modulate intracellular calcium.

Row | SMILES | % Inhibition at 10 μM [%]
1 | O=C(Nc1scc(-c2ccc(Br)cc2)c1C(=O)O)c1cc2ccccc2s1 [Compound 14, 2-(benzothien-2-ylamido)-4-(4-bromophenyl)thiophene-3-carboxylic acid] | >70
2 | O=C(Nc1scc(-c2ccc(Cl)cc2)c1C(=O)O)c1cc2ccccc2s1 [Compound 43, 2-(benzothien-2-ylamido)-4-(4-chlorophenyl)thiophene-3-carboxylic acid] | >70
3 | Cc1ccc(-c2csc(NC(=O)c3cc4ccccc4s3)c2C(=O)O)cc1 [Compound 44, 2-(benzothien-2-ylamido)-4-(4-methylphenyl)thiophene-3-carboxylic acid] | <70
4 | O=C(Nc1scc(-c2ccc(Cl)cc2Cl)c1C(=O)O)c1cc2ccccc2s1 [Compound 45, 2-(benzothien-2-ylamido)-4-(2,4-dichlorophenyl)thiophene-3-carboxylic acid] | >70
5 | O=C(Nc1scc(-c2cccc(Cl)c2)c1C(=O)O)c1cc2ccccc2s1 [Compound 46, 2-(benzothien-2-ylamido)-4-(3-chlorophenyl)thiophene-3-carboxylic acid] | >70

Same assay, conditions: Rattus norvegicus, RBL-2H3; 10 μM; cell line not stated

Row | SMILES | inhibition at 10 µM [%]
6 | O=C(Nc1scc(-c2ccc(Cl)c(Cl)c2)c1C(=O)O)c1ccc(F)cc1 [Compound 3, 2-(4-fluorobenzamido)-4-(3,4-dichlorophenyl)thiophene-3-carboxylic acid] | > 70
7 | O=C(Nc1scc(-c2ccc(C(F)(F)F)cc2)c1C(=O)O)c1ccc(F)cc1 [Compound 4, 2-(4-fluorobenzamido)-4-(4-trifluoromethylphenyl)thiophene-3-carboxylic acid] | > 70
8 | O=C(Nc1scc(-c2ccc(Cl)cc2)c1C(=O)O)c1ccc(Br)cc1 [Compound 17, 2-(4-bromobenzamido)-4-(4-chlorophenyl)thiophene-3-carboxylic acid] | > 70
9 | O=C(Nc1scc(-c2ccc(Br)cc2)c1C(=O)O)c1ccc(Br)cc1 [Compound 18, 2-(4-bromobenzamido)-4-(4-bromophenyl)thiophene-3-carboxylic acid] | > 70
10 | O=C(Nc1scc(-c2cc(Cl)cc(Cl)c2)c1C(=O)O)c1ccc(Br)cc1 [Compound 19, 2-(4-bromobenzamido)-4-(3,5-dichlorophenyl)thiophene-3-carboxylic acid] | > 70
11 | O=C(Nc1scc(-c2cccc(Cl)c2)c1C(=O)O)c1ccc(Br)cc1 [Compound 20, 2-(4-bromobenzamido)-4-(3-chlorophenyl)thiophene-3-carboxylic acid] | < 70
12 | Cc1ccc(-c2csc(NC(=O)c3ccc(Br)cc3)c2C(=O)O)cc1C [Compound 21, 2-(4-bromobenzamido)-4-(3,4-dimethylphenyl)thiophene-3-carboxylic acid] | > 70
13 | O=C(Nc1scc(-c2ccc(Cl)cc2Cl)c1C(=O)O)c1cccc(F)c1 [Compound 26, 2-(3-fluorobenzamido)-4-(2,4-dichlorophenyl)thiophene-3-carboxylic acid] | > 70
14 | O=C(Nc1scc(-c2ccc(Cl)cc2Cl)c1C(=O)O)c1ccc(Cl)cc1 [Compound 35, 2-(4-chlorobenzamido)-4-(2,4-dichlorophenyl)thiophene-3-carboxylic acid] | > 70
15 | O=C(Nc1scc(-c2ccc(Cl)c(Cl)c2)c1C(=O)O)c1ccc(Cl)cc1 [Compound 37, 2-(4-chlorobenzamido)-4-(3,4-dichlorophenyl)thiophene-3-carboxylic acid] | < 70
16 | Cc1ccc(-c2csc(NC(=O)c3ccc(Cl)cc3)c2C(=O)O)cc1C [Compound 38, 2-(4-chlorobenzamido)-4-(3,4-dimethylphenyl)thiophene-3-carboxylic acid] | < 70

Same assay, conditions: Rattus norvegicus; Up slope parameter; RBL-2H3 cells

Row | SMILES | IC50 [µM]
17 | O=C(Nc1scc(-c2ccc(Cl)cc2)c1C(=O)O)c1ccc(F)cc1 [Compound 2, 2-(4-fluorobenzamido)-4-(4-chlorophenyl)thiophene-3-carboxylic acid] | 2.3
18 | O=C(Nc1scc(-c2ccc(Cl)c(Cl)c2)c1C(=O)O)c1ccc(F)cc1 [Compound 3, 2-(4-fluorobenzamido)-4-(3,4-dichlorophenyl)thiophene-3-carboxylic acid] | 3.3
19 | O=C(Nc1scc(-c2ccc(Br)cc2)c1C(=O)O)c1cccc(F)c1 [Compound 11, 2-(3-fluorobenzamido)-4-(4-bromophenyl)thiophene-3-carboxylic acid] | 0.8
20 | O=C(Nc1scc(-c2ccc(Br)cc2)c1C(=O)O)c1ccc(Cl)cc1 [Compound 12, 2-(4-chlorobenzamido)-4-(4-bromophenyl)thiophene-3-carboxylic acid] | 1.2
21 | Cc1cccc(C(=O)Nc2scc(-c3ccc(Br)cc3)c2C(=O)O)c1 [Compound 15, 2-(3-methylbenzamido)-4-(4-bromophenyl)thiophene-3-carboxylic acid] | 2.6
22 | Cc1ccc(-c2csc(NC(=O)c3ccc(Br)cc3)c2C(=O)O)cc1 [Compound 16, 2-(4-bromobenzamido)-4-(4-methylphenyl)thiophene-3-carboxylic acid] | 0.6
23 | O=C(Nc1scc(-c2ccc(Cl)cc2)c1C(=O)O)c1ccc(Br)cc1 [Compound 17, 2-(4-bromobenzamido)-4-(4-chlorophenyl)thiophene-3-carboxylic acid] | 1
24 | O=C(Nc1scc(-c2ccc(Br)cc2)c1C(=O)O)c1ccc(Br)cc1 [Compound 18, 2-(4-bromobenzamido)-4-(4-bromophenyl)thiophene-3-carboxylic acid] | 1.3
25 | O=C(Nc1scc(-c2cc(Cl)cc(Cl)c2)c1C(=O)O)c1ccc(Br)cc1 [Compound 19, 2-(4-bromobenzamido)-4-(3,5-dichlorophenyl)thiophene-3-carboxylic acid] | 1.6
26 | O=C(Nc1scc(-c2cccc(Cl)c2)c1C(=O)O)c1ccc(Br)cc1 [Compound 20, 2-(4-bromobenzamido)-4-(3-chlorophenyl)thiophene-3-carboxylic acid] | 4
27 | Cc1ccc(-c2csc(NC(=O)c3ccc(Br)cc3)c2C(=O)O)cc1C [Compound 21, 2-(4-bromobenzamido)-4-(3,4-dimethylphenyl)thiophene-3-carboxylic acid] | 4.6
28 | O=C(Nc1scc(-c2ccc(Cl)cc2)c1C(=O)O)c1cccc(F)c1 [Compound 25, 2-(3-fluorobenzamido)-4-(4-chlorophenyl)thiophene-3-carboxylic acid] | 1.3
29 | O=C(Nc1scc(-c2ccc(Cl)cc2Cl)c1C(=O)O)c1cccc(F)c1 [Compound 26, 2-(3-fluorobenzamido)-4-(2,4-dichlorophenyl)thiophene-3-carboxylic acid] | 2.1
30 | O=C(Nc1scc(-c2ccc(Cl)cc2)c1C(=O)O)c1ccc(Cl)cc1 [Compound 33, 2-(4-chlorobenzamido)-4-(4-chlorophenyl)thiophene-3-carboxylic acid] | 1
31 | Cc1ccc(-c2csc(NC(=O)c3ccc(Cl)cc3)c2C(=O)O)cc1 [Compound 34, 2-(4-chlorobenzamido)-4-(4-methylphenyl)thiophene-3-carboxylic acid] | 1
32 | O=C(Nc1scc(-c2ccc(Cl)cc2Cl)c1C(=O)O)c1ccc(Cl)cc1 [Compound 35, 2-(4-chlorobenzamido)-4-(2,4-dichlorophenyl)thiophene-3-carboxylic acid] | 1.6
33 | O=C(Nc1scc(-c2ccc(F)cc2)c1C(=O)O)c1ccc(Cl)cc1 [Compound 36, 2-(4-chlorobenzamido)-4-(4-fluorophenyl)thiophene-3-carboxylic acid] | 2.4
34 | O=C(Nc1scc(-c2ccc(Cl)c(Cl)c2)c1C(=O)O)c1ccc(Cl)cc1 [Compound 37, 2-(4-chlorobenzamido)-4-(3,4-dichlorophenyl)thiophene-3-carboxylic acid] | 3
35 | Cc1ccc(-c2csc(NC(=O)c3ccc(Cl)cc3)c2C(=O)O)cc1C [Compound 38, 2-(4-chlorobenzamido)-4-(3,4-dimethylphenyl)thiophene-3-carboxylic acid] | 3.8
36 | Cc1cccc(C(=O)Nc2scc(-c3ccc(Cl)cc3)c2C(=O)O)c1 [Compound 50, 2-(3-methylbenzamido)-4-(4-chlorophenyl)thiophene-3-carboxylic acid] | 1.2
37 | Cc1ccc(-c2csc(NC(=O)c3cccc(C)c3)c2C(=O)O)cc1 [Compound 51, 2-(3-methylbenzamido)-4-(4-methylphenyl)thiophene-3-carboxylic acid] | 3

Same assay, conditions: Up slope parameter; RBL-2H3 cells

Row | SMILES | IC50 [µM]
38 | O=C(Nc1scc(-c2ccc(Br)cc2)c1C(=O)O)c1cc2ccccc2s1 [Compound 14, 2-(benzothien-2-ylamido)-4-(4-bromophenyl)thiophene-3-carboxylic acid] | 2.4
39 | O=C(Nc1scc(-c2ccc(Cl)cc2)c1C(=O)O)c1cc2ccccc2s1 [Compound 43, 2-(benzothien-2-ylamido)-4-(4-chlorophenyl)thiophene-3-carboxylic acid] | 1
40 | Cc1ccc(-c2csc(NC(=O)c3cc4ccccc4s3)c2C(=O)O)cc1 [Compound 44, 2-(benzothien-2-ylamido)-4-(4-methylphenyl)thiophene-3-carboxylic acid] | 1.3
41 | O=C(Nc1scc(-c2ccc(Cl)cc2Cl)c1C(=O)O)c1cc2ccccc2s1 [Compound 45, 2-(benzothien-2-ylamido)-4-(2,4-dichlorophenyl)thiophene-3-carboxylic acid] | 2.4
42 | O=C(Nc1scc(-c2cccc(Cl)c2)c1C(=O)O)c1cc2ccccc2s1 [Compound 46, 2-(benzothien-2-ylamido)-4-(3-chlorophenyl)thiophene-3-carboxylic acid] | 10.7

Test system: HEK-Zeo control cells
Assay: not given
Details: read-out: IC50 for inhibition of calcium entry, HEK-Zeo control cells; thapsigargin-mediated store depletion, readdition of external calcium
Procedure: (§1) To test whether the Ca^2+ entry pathway activated by STIM1 overexpression is pharmacologically similar to endogenous SOCE, HEK[STIM1] cells were pre-incubated with increasing doses of 2-APB and STIM1-dependent Ca^2+ entry was measured.

Row | SMILES | IC50 [nM]
43 | NCCOB(c1ccccc1)c1ccccc1 [Compound 2-APB, 2-aminoethoxydiphenyl borate] | 11800

Test system: HEK[STIM1] cells
Assay: STIM1-dependent Ca2+ entry in STIM1-overexpressing cells
Assay type: cell-based, human
Details: HEK293 overexpressing STIM1, no Tg store depletion; FIG. 13
Procedure: as §1

Row | SMILES | effect on STIM1-dependent Ca2+ entry
44 | NCCOB(c1ccccc1)c1ccccc1 [Compound 2-APB, 2-aminoethoxydiphenyl borate] | biphasic effect; also recorded: both enhances (at low concentrations) and inhibits (at high concentrations)

Same assay, conditions: HEK[STIM1] cells; entry induced by pretreatment in Ca2+-free buffer; read-out: IC50 for inhibition of Ca2+ entry in the absence of Tg-dependent store depletion

Row | SMILES | IC50 [nM]
45 | NCCOB(c1ccccc1)c1ccccc1 [Compound 2-APB, 2-aminoethoxydiphenyl borate] | 10800

Same assay, conditions: thapsigargin-mediated store depletion, readdition of external calcium; read-out: IC50 for inhibition of calcium entry, HEK[STIM1] cells

Row | SMILES | IC50 [nM]
46 | NCCOB(c1ccccc1)c1ccccc1 [Compound 2-APB, 2-aminoethoxydiphenyl borate] | 10500

Molecular target: T1, hOrail/hSTIM1 (Homo sapiens, UniProt Q96D31)
T1 construct: expressed in transfected cells
Assay: Recombinant hOrail/hSTIM1-dependent Ca2+ entry in stable cells
Assay type: cell-based
Details: FIG. 14

T1 sequence (Q96D31 whole entry): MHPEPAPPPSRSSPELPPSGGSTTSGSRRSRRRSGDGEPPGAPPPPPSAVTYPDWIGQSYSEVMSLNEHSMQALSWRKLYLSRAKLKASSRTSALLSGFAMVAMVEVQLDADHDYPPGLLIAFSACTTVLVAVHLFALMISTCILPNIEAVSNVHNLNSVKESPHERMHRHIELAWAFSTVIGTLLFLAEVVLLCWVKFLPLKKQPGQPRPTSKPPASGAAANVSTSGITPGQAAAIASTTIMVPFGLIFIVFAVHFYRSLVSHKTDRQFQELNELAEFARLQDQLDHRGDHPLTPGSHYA
T1 sequence (Q13586 23-685 partner): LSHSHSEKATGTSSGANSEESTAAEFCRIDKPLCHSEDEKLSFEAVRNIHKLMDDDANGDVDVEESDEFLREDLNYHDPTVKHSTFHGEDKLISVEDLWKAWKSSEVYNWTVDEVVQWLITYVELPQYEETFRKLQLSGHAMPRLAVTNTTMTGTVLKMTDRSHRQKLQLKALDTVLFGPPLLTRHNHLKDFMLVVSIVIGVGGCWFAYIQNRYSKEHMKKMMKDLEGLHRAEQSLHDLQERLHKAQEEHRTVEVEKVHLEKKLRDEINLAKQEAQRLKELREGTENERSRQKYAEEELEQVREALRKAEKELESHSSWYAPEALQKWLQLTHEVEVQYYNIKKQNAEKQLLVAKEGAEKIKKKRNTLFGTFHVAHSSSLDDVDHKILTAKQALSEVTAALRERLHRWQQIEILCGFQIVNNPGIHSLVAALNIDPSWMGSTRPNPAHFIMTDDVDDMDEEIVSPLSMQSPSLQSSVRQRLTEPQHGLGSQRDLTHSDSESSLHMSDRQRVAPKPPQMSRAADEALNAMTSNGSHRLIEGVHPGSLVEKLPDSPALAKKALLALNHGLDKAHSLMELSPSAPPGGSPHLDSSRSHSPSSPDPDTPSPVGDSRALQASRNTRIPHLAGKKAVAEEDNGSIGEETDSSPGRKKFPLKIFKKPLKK

Row | SMILES | effect on recombinant hOrail/hSTIM1-dependent Ca2+ entry
47 | O=C(Nc1scc(-c2ccc(Cl)cc2)c1C(=O)O)c1ccc(F)cc1 [Compound 2, 2-(4-fluorobenzamido)-4-(4-chlorophenyl)thiophene-3-carboxylic acid] | inhibition

Molecular target: T1, hOrail/hSTIM1
Assay: Monster ICRAC in cells stably overexpressing hOrail/hSTIM1
Assay type: cell-based
Details: FIG. 15

Row | SMILES | effect on Monster ICRAC
48 | O=C(Nc1scc(-c2ccc(Cl)cc2)c1C(=O)O)c1ccc(F)cc1 [Compound 2, 2-(4-fluorobenzamido)-4-(4-chlorophenyl)thiophene-3-carboxylic acid] | inhibit
